Laboratory results from PubChem BioAssay (NCI).
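Each compound was tested at five concentrations against cells in 96-well plates for 48 hours. Abbreviation: GI50, concentration required for 50% inhibition of growth. TGI marks complete inhibition of growth.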

Assays:
Assay in all cases: NCI anticancer screen, dose series, 48 h
786-0 renal = test system: 786-0 renal
HCT-15 colon = test system: HCT-15 colon
HOP-62 NSCLC = test system: HOP-62 NSCLC
HT29 colon = test system: HT29 colon
NCI/ADR-RES ovarian = test system: NCI/ADR-RES ovarian
OVCAR-5 ovarian = test system: OVCAR-5 ovarian
RXF 393 renal = test system: RXF 393 renal
SK-MEL-28 melanoma = test system: SK-MEL-28 melanoma
SK-MEL-2 melanoma = test system: SK-MEL-2 melanoma
BT-549 breast = test system: BT-549 breast

SMILES	TGI (786-0 renal)	TGI (HCT-15 colon)	TGI (HOP-62 NSCLC)	TGI (HT29 colon)	TGI (NCI/ADR-RES ovarian)	TGI (OVCAR-5 ovarian)	TGI (RXF 393 renal)	TGI (SK-MEL-28 melanoma)	TGI (SK-MEL-2 melanoma)	TGI (BT-549 breast)	GI50 (786-0 renal)	GI50 (BT-549 breast)	GI50 (HCT-15 colon)	GI50 (HOP-62 NSCLC)	GI50 (NCI/ADR-RES ovarian)	GI50 (OVCAR-5 ovarian)	GI50 (RXF 393 renal)	GI50 (SK-MEL-2 melanoma)	GI50 (SK-MEL-28 melanoma)	GI50 (HT29 colon)
CN(COC(=O)c1ccccc1)c1nc(N(C)COC(=O)c2ccccc2)nc(N(C)COC(=O)c2ccccc2)n1	46.5 µM	> 100 µM	40.6 µM	> 100 µM	> 100 µM	> 100 µM	26.2 µM	> 100 µM	–	–	–	–	–	–	–	–	–	–	–	–
O=C(O)C1CCCCC1c1c2ccc(=O)c(O)c-2oc2c(O)c(O)ccc12 (stereo not given)	46.2 µM	–	94.4 µM	> 100 µM	–	> 100 µM	> 100 µM	> 100 µM	> 100 µM	–	–	–	–	–	–	–	–	–	–	–
Cc1noc2c1C(=O)CCC2	> 100 µM	–	–	> 100 µM	–	> 100 µM	> 100 µM	> 100 µM	> 100 µM	–	–	–	–	–	–	–	–	–	–	–
Cc1cn(C2C=CC(CO)O2)c(=O)[nH]c1=O (stereo not given)	> 1000 µM	> 1000 µM	> 1000 µM	> 1000 µM	> 1000 µM	> 1000 µM	–	–	> 1000 µM	> 1000 µM	–	–	–	–	–	–	–	–	–	–
Brc1ccc2[nH]cc(-c3nc(-c4c[nH]c5ncccc45)cs3)c2c1	4.49 µM	6.86 µM	17 µM	–	26.1 µM	17.6 µM	8.56 µM	16.1 µM	20.3 µM	18.9 µM	1.88 µM	6.07 µM	2.41 µM	3.76 µM	3.38 µM	4.49 µM	1.64 µM	7.11 µM	4.27 µM	–
Cc1ccc(-c2c3c(nn2-c2ccc(S(N)(=O)=O)cc2)-c2ccccc2C3)cc1	31.8 µM	42.4 µM	36.1 µM	95.8 µM	68.7 µM	63.7 µM	43.7 µM	33.8 µM	26.6 µM	–	15.2 µM	–	20.2 µM	20.6 µM	23.4 µM	26.1 µM	17 µM	12.2 µM	17.7 µM	24.2 µM
CCC/C=C1\CCC(CN(C)C)C1=O (stereo not given)	7.16 µM	6.68 µM	29.2 µM	17.9 µM	–	35.6 µM	–	14.9 µM	29.7 µM	–	–	–	–	–	–	–	–	–	–	–
Oc1ccc(O)c(-c2cc(-c3ccc(Cl)cc3)nn2-c2ccccc2)c1	5.4 µM	25.5 µM	–	–	25.3 µM	10.7 µM	–	–	> 100 µM	52.3 µM	2.21 µM	21 µM	12.5 µM	–	–	3.11 µM	–	23.4 µM	–	–
ON(Cc1ccccc1)C(=S)c1ccccc1	> 100 µM	> 100 µM	42.9 µM	> 100 µM	–	> 100 µM	85.3 µM	> 100 µM	> 100 µM	> 100 µM	–	–	–	–	–	–	–	–	–	–
Cc1cccc(C(C)C)c1N1C(=O)C(=O)C(c2nc3ccccc3o2)C(=O)C1=O	> 100 µM	> 100 µM	> 100 µM	> 100 µM	–	> 100 µM	> 100 µM	> 100 µM	> 100 µM	–	–	–	–	–	–	–	–	–	–	–
